According to patent US20260007131A1, “HERBICIDAL COMPOSITION CONTAINING DIFLUOROBUTENOIC ACID AMIDE COMPOUND” (ISHIHARA SANGYO KAISHA, LTD., priority 2022, published 2026):

Tests used:
Format in all cases: in vivo
[1] = test system: barnyardgrass (Echinochloa crus-galli); experiment: Herbicidal effect on barnyardgrass (foliar treatment); conditions: Comparative Test 1, barnyardgrass, read-out: Growth inhibition rate
Protocol: (§1) Upland soil was put into a 1/300,000 hectare (ha) pot, seeds of barnyardgrass (Echinochloa crus-galli) were sown, and about 1.5 cm of cover soil was put. The barnyardgrass was grown for 10 days in a greenhouse until it reached a predetermined leaf stage. […] The spray solution was sprayed over the grown barnyardgrass with a small sprayer for foliar treatment.
(§2) Upland soil was put into a 1/300,000 hectare (ha) pot, seeds of barnyardgrass (Echinochloa crus-galli), crabgrass (Digitaria sanguinalis), green foxtail (Setaria viridis), wild oat (Avena fatua), Italian ryegrass (Lolium multiflorum), foxtail shortawn (Alopecurus aequalis), annual bluegrass (Poa annua), redroot pigweed (Amaranthus retroflexus), common chickweed (Stellaria media) common lambsquarters (Chenopodium album) and black nightshade (Solanum nigrum) were sown, and about 1.5 cm of cover soil was put. The plants were grown for 10 days in a greenhouse until they reached a predetermined leaf stage.

[2] = test system: crabgrass (Digitaria sanguinalis); experiment: Herbicidal effect on crabgrass (foliar treatment); conditions: Comparative Test 1, crabgrass, read-out: Growth inhibition rate
Protocol: as §1, §2

[3] = test system: green foxtail (Setaria viridis); experiment: Herbicidal effect on green foxtail (foliar treatment); conditions: Comparative Test 1, green foxtail, read-out: Growth inhibition rate
Protocol: as §1, §2

wild oat (Avena fatua) = experiment: Herbicidal effect on wild oat (foliar treatment); conditions: Comparative Test 1, wild oat, read-out: Growth inhibition rate
Protocol: as §1, §2

[4] = test system: Italian ryegrass (Lolium multiflorum); experiment: Herbicidal effect on Italian ryegrass (foliar treatment); conditions: Comparative Test 1, Italian ryegrass, read-out: Growth inhibition rate
Protocol: as §1, §2

[5] = test system: foxtail shortawn (Alopecurus aequalis); experiment: Herbicidal effect on foxtail shortawn (foliar treatment); conditions: Comparative Test 1, foxtail shortawn, read-out: Growth inhibition rate
Protocol: as §1, §2

[6] = test system: annual bluegrass (Poa annua); experiment: Herbicidal effect on annual bluegrass (foliar treatment); conditions: Comparative Test 1, annual bluegrass, read-out: Growth inhibition rate
Protocol: as §1, §2

[7] = test system: redroot pigweed (Amaranthus retroflexus); experiment: Herbicidal effect on redroot pigweed (foliar treatment); conditions: Comparative Test 1, redroot pigweed, read-out: Growth inhibition rate
Protocol: as §1, §2

[8] = test system: common chickweed (Stellaria media); experiment: Herbicidal effect on common chickweed (foliar treatment); conditions: Comparative Test 1, common chickweed, read-out: Growth inhibition rate
Protocol: as §1, §2

[9] = test system: common lambsquarters (Chenopodium album); experiment: Herbicidal effect on common lambsquarters (foliar treatment); conditions: Comparative Test 1, common lambsquarters, read-out: Growth inhibition rate
Protocol: as §1, §2

[10] = test system: black nightshade (Solanum nigrum); experiment: Herbicidal effect on black nightshade (foliar treatment); conditions: Comparative Test 1, black nightshade, read-out: Growth inhibition rate
Protocol: as §1, §2

[11] = test system: barnyardgrass (Echinochloa crus-galli); experiment: Herbicidal effect on barnyardgrass (soil treatment); conditions: Comparative Test 2, barnyardgrass, read-out: Growth inhibition rate
Text: (§3) Upland soil was put into a 1/300,000 hectare (ha) pot, seeds of barnyardgrass (Echinochloa crus-galli) were sown, and about 1.5 cm of cover soil was put. […] On the next day after sowing, the spray solution was sprayed with a small sprayer for soil treatment.
(§4) Upland soil was put into a 1/300,000 hectare (ha) pot, seeds of barnyardgrass (Echinochloa crus-galli), crabgrass (Digitaria sanguinalis), green foxtail (Setaria viridis), Italian ryegrass (Lolium multiflorum), redroot pigweed (Amaranthus retroflexus) and common chickweed (Stellaria media) were sown, and about 1.5 cm of cover soil was put.

[12] = test system: crabgrass (Digitaria sanguinalis); experiment: Herbicidal effect on crabgrass (soil treatment)
Text: as §3, §4

[13] = test system: green foxtail (Setaria viridis); experiment: Herbicidal effect on green foxtail (soil treatment); conditions: Comparative Test 2, green foxtail, read-out: Growth inhibition rate
Text: as §3, §4

[14] = test system: Italian ryegrass (Lolium multiflorum); experiment: Herbicidal effect on Italian ryegrass (soil treatment)
Text: as §3, §4

[15] = test system: redroot pigweed (Amaranthus retroflexus); experiment: Herbicidal effect on redroot pigweed (soil treatment)
Text: as §3, §4

[16] = test system: common chickweed (Stellaria media); experiment: Comparative Test 2: herbicidal effect on common chickweed (soil treatment); conditions: Comparative Test 2, common chickweed, read-out: Growth inhibition rate
Text: Upland soil was put into a 1/300,000 hectare (ha) pot, seeds of barnyardgrass (Echinochloa crus-galli), crabgrass (Digitaria sanguinalis), green foxtail (Setaria viridis), Italian ryegrass (Lolium multiflorum), redroot pigweed (Amaranthus retroflexus) and common chickweed (Stellaria media) were sown, and about 1.5 cm of cover soil was put. The Invention Compound (Aa-1-1, Aa-9-2) or the compound 4b described in Patent Document 1 was weighed to achieve a predetermined active ingredient dose, dissolved in acetone (containing 0.5 vol % of surfactant (TritonX-100: manufactured by Kishida Chemical Co., Ltd.)) or dimethyl sulfoxide and diluted with water (containing 0.1 vol % of agricultural spreader (Surfactant WK: manufactured by MARUWA Biochemical Co., Ltd.) in an amount corresponding to 1,000 liter per hectare, to prepare each spray solution. On the next day after sowing, each spray solution was sprayed with a small sprayer for soil treatment. On the 14th day after the soil treatment, the state of growth of each plant was visually observed, and the herbicidal effect was evaluated in accordance with the growth inhibition rate (%) of from 0 (equivalent to the non-treated area) to 100 (complete kill).

[17] = Comparative Test 2, crabgrass, read-out: Growth inhibition rate
[18] = Comparative Test 2, Italian ryegrass, read-out: Growth inhibition rate
[19] = Comparative Test 2, redroot pigweed, read-out: Growth inhibition rate

## COC(=O)[C@H]1C[C@H](NC(=O)C(F)(F)/C=C/c2cc(C)cc(F)c2)C1 [Aa-9-2]
[1]
  inhibition at 500 g/ha: ≥ 90%
  inhibition at 1000 g/ha: ≥ 90%
[2]
  inhibition at 500 g/ha: ≥ 90%
  inhibition at 1000 g/ha: ≥ 90%
[3]
  inhibition at 500 g/ha: ≥ 90%
  inhibition at 1000 g/ha: ≥ 90%
Wild oat (Avena fatua)
  inhibition at 500 g/ha: ≥ 90%
  inhibition at 1000 g/ha: ≥ 90%
[4]
  inhibition at 500 g/ha: ≥ 90%
  inhibition at 1000 g/ha: ≥ 90%
[5]
  inhibition at 500 g/ha: ≥ 90%
  inhibition at 1000 g/ha: ≥ 90%
[6]
  inhibition at 500 g/ha: ≥ 90%
  inhibition at 1000 g/ha: ≥ 90%
[7]
  inhibition at 500 g/ha: 70 to 90%
  inhibition at 1000 g/ha: 70 to 90%
[8]
  inhibition at 500 g/ha: ≥ 90%
  inhibition at 1000 g/ha: ≥ 90%
[9]
  inhibition at 500 g/ha: 70 to 90%
  inhibition at 1000 g/ha: 70 to 90%
[10]
  inhibition at 500 g/ha: 50 to 70%
  inhibition at 1000 g/ha: 70 to 90%
[11]
  inhibition at 500 g/ha: ≥ 90%
  inhibition at 1000 g/ha: ≥ 90%
[12]; [17]
  inhibition at 500 g/ha: ≥ 90%
  inhibition at 1000 g/ha: ≥ 90%
[12]; crabgrass, 14th day, read-out: growth inhibition rate
  inhibition at 500 g/ha: ≥ 70%
[13]
  inhibition at 500 g/ha: ≥ 90%
  inhibition at 1000 g/ha: ≥ 90%
[14]; [18]
  inhibition at 500 g/ha: ≥ 90%
  inhibition at 1000 g/ha: ≥ 90%
[14]; Italian ryegrass, 14th day, read-out: growth inhibition rate
  inhibition at 500 g/ha: ≥ 70%
[15]; [19]
  inhibition at 500 g/ha: ≥ 90%
  inhibition at 1000 g/ha: ≥ 90%
[15]; redroot pigweed, 14th day, read-out: growth inhibition rate
  inhibition at 500 g/ha: ≥ 70%
[16]
  inhibition at 500 g/ha: ≥ 90%
  inhibition at 1000 g/ha: ≥ 90%

## CN(C(=O)/C=C/c1ccccc1)C1CCC1 [Compound 4b, reference compound]
[1]
  inhibition at 500 g/ha: < 30%
  inhibition at 1000 g/ha: < 30%
[2]
  inhibition at 500 g/ha: < 30%
  inhibition at 1000 g/ha: < 30%
[3]
  inhibition at 500 g/ha: < 30%
  inhibition at 1000 g/ha: < 30%
Wild oat (Avena fatua)
  inhibition at 500 g/ha: < 30%
  inhibition at 1000 g/ha: < 30%
[4]
  inhibition at 500 g/ha: < 30%
  inhibition at 1000 g/ha: < 30%
[5]
  inhibition at 500 g/ha: < 30%
  inhibition at 1000 g/ha: < 30%
[6]
  inhibition at 500 g/ha: < 30%
  inhibition at 1000 g/ha: < 30%
[7]
  inhibition at 500 g/ha: < 30%
  inhibition at 1000 g/ha: 30 to 50%
[8]
  inhibition at 500 g/ha: < 30%
  inhibition at 1000 g/ha: 30 to 50%
[9]
  inhibition at 500 g/ha: < 30%
  inhibition at 1000 g/ha: < 30%
[10]
  inhibition at 500 g/ha: < 30%
  inhibition at 1000 g/ha: ≥ 90%
[11]
  inhibition at 500 g/ha: < 30%
  inhibition at 1000 g/ha: < 30%
[12]; [17]
  inhibition at 500 g/ha: < 30%
  inhibition at 1000 g/ha: < 30%
[13]
  inhibition at 500 g/ha: < 30%
  inhibition at 1000 g/ha: < 30%
[14]; [18]
  inhibition at 500 g/ha: < 30%
  inhibition at 1000 g/ha: < 30%
[15]; [19]
  inhibition at 500 g/ha: < 30%
  inhibition at 1000 g/ha: < 30%
[16]
  inhibition at 500 g/ha: < 30%
  inhibition at 1000 g/ha: < 30%
